Results taken from PMC8286840, “Identifying SARS-CoV-2 antiviral compounds by screening for small molecule inhibitors of Nsp3 papain-like protease” (Biochemical Journal, 2021).
Structures can show the parent of a compound that is named as a salt. Where two headings read alike, the source gives them in different places.

Tests used:
[1] = molecular target: T1, SARS-CoV-2 PLpro (nsp3 1564–1878) (Severe acute respiratory syndrome coronavirus 2, UniProt P0DTD1); assay: biochemical; parameters: FRET-quenched peptide (Pro3) cleavage by PLpro, 10 min pre-incubation, slope over 20 min, normalised to no-compound control; settings: low concentration screen, read-out: % of control remaining
[2] = molecular target: T1, SARS-CoV-2 PLpro (nsp3 1564–1878); assay: biochemical; parameters: FRET-quenched peptide (Pro3) cleavage by PLpro, 10 min pre-incubation, slope over 20 min, normalised to no-compound control; settings: high concentration screen, read-out: % of control remaining

C[C@]12C=CC(=O)C=C1CC[C@@H]1[C@@H]2[C@@H](O)C[C@@]2(C)[C@H]1CC[C@]2(O)C(=O)CO [Prednisolone]
remaining activity at 1.25 µM ([1]; Well no.=2141): 99.3%
remaining activity at 1.25 µM ([1]; Well no.=6605): 102%
remaining activity at 3.75 µM ([2]; Well no.=6605): 102%

N#C/C(=C\c1ccc(O)c(O)c1)C(=O)c1ccc(O)c(O)c1 [Tyrphostin AG 538]
remaining activity at 1.25 µM ([1]; Well no.=1468): 93.5%
remaining activity at 3.75 µM ([2]; Well no.=1468): 92.4%

O[C@H]1[C@H](O)[C@@H](O)[C@H](O)[C@@H](O)[C@@H]1O [scyllo -Inositol]
remaining activity at 1.25 µM ([1]; Well no.=5379): 104%
remaining activity at 3.75 µM ([2]; Well no.=5379): 102%

CC(=O)Oc1cc2c(s1)CCN(C(C(=O)C1CC1)c1ccccc1F)C2 (stereo not drawn) [Prasugrel (Effient)]
remaining activity at 1.25 µM ([1]; Well no.=4765): 103%
remaining activity at 3.75 µM ([2]; Well no.=4765): 104%

CC(C)C[C@H](NC(=O)[C@@H](Cc1c[nH]c2ccccc12)NC(=O)[C@H](Cc1ccc(O)cc1)NC(=O)[C@H](CO)NC(=O)[C@H](Cc1c[nH]c2ccccc12)NC(=O)[C@H](Cc1c[nH]cn1)NC(=O)[C@@H]1CCC(=O)N1)C(=O)N[C@@H](CCCNC(=N)N)C(=O)N1CCC[C@H]1C(=O)NCC(N)=O [Triptorelin]
remaining activity at 1.25 µM ([1]; Well no.=1985): 100%
remaining activity at 3.75 µM ([2]; Well no.=1985): 101%

C/C(=C/C(=O)O)C(=O)O [Citraconic acid]
remaining activity at 1.25 µM ([1]; Well no.=6261): 102%
remaining activity at 3.75 µM ([2]; Well no.=6261): 89.6%

N[C@@H](Cc1cc(I)c(Oc2cc(I)c(O)c(I)c2)c(I)c1)C(=O)O [L-thyroxine]
remaining activity at 1.25 µM ([1]; Well no.=2298): 86.3%
remaining activity at 1.25 µM ([1]; Well no.=7299): 102%
remaining activity at 3.75 µM ([2]; Well no.=2298): 88.2%
remaining activity at 3.75 µM ([2]; Well no.=7299): 105%

CC(CC(c1ccccc1)c1ccccc1)NC(C)(C)C (stereo not drawn) [Terodiline hydrochloride]
remaining activity at 1.25 µM ([1]; Well no.=5438): 94.4%
remaining activity at 3.75 µM ([2]; Well no.=5438): 99.3%

CN/C(=N\CCSCc1nc[nH]c1C)NC#N [Cimetidine]
remaining activity at 1.25 µM ([1]; Well no.=272): 88%
remaining activity at 1.25 µM ([1]; Well no.=1875): 96.3%
remaining activity at 1.25 µM ([1]; Well no.=7328): 94.5%
remaining activity at 3.75 µM ([2]; Well no.=272): 93.4%
remaining activity at 3.75 µM ([2]; Well no.=1875): 99.3%
remaining activity at 3.75 µM ([2]; Well no.=7328): 97.6%

COc1cc2nc(N3CCN(C(=O)C4COc5ccccc5O4)CC3)nc(N)c2cc1OC (stereo not drawn) [Doxazosin (mesylate)]
remaining activity at 1.25 µM ([1]; Well no.=8187): 105%
remaining activity at 3.75 µM ([2]; Well no.=8187): 102%

CN1[C@@H]2CC(O)C[C@H]1[C@@H]1O[C@@H]12 (stereo partly drawn) [Scopine (hydrochloride)]
remaining activity at 1.25 µM ([1]; Well no.=6555): 94.2%
remaining activity at 3.75 µM ([2]; Well no.=6555): 101%

O=C1CN2Cc3c(ccc(Cl)c3Cl)N=C2N1 [Anagrelide]
remaining activity at 1.25 µM ([1]; Well no.=1629): 95.8%
remaining activity at 3.75 µM ([2]; Well no.=1629): 97.6%

CCCCCC(O)c1cccc(OCc2ccc3ccccc3n2)c1 (stereo not drawn) [REV 5901]
remaining activity at 1.25 µM ([1]; Well no.=1158): 104%
remaining activity at 3.75 µM ([2]; Well no.=1158): 101%

NCCCC[C@H](N[C@@H](CCc1ccccc1)C(=O)O)C(=O)N1CCC[C@H]1C(=O)O [Lisinopril]
remaining activity at 1.25 µM ([1]; Well no.=2270): 91.3%
remaining activity at 3.75 µM ([2]; Well no.=2270): 93.2%

O=C1/C(=C/c2ccc([N+](=O)[O-])cc2)CS(=O)(=O)C/C1=C\c1ccc([N+](=O)[O-])cc1 [Ubiquitin Isopeptidase Inhibitor I, G5]
remaining activity at 1.25 µM ([1]; Well no.=6388): 93.2%
remaining activity at 3.75 µM ([2]; Well no.=6388): 95.7%

O=[N+]([O-])c1ccc(CSc2ncnc3c2ncn3[C@@H]2O[C@H](CO)[C@@H](O)[C@H]2O)cc1 [S-(4-Nitrobenzyl)-6-thioinosine]
remaining activity at 1.25 µM ([1]; Well no.=949): 105%
remaining activity at 3.75 µM ([2]; Well no.=949): 101%

CN(C)C(=O)[C@H](O)[C@H](Cc1ccccc1)NC(=O)c1cc2cc(Cl)ccc2[nH]1 [CP-91149]
remaining activity at 1.25 µM ([1]; Well no.=5021): 101%
remaining activity at 3.75 µM ([2]; Well no.=5021): 104%

CC(C)Cn1c(=O)n(C)c(=O)c2[nH]cnc21 [3-Isobutyl-1-methylxanthine]
remaining activity at 1.25 µM ([1]; Well no.=773): 108%
remaining activity at 3.75 µM ([2]; Well no.=773): 106%

O=C1CC[C@@]2(O)[C@H]3Cc4ccc(O)c5c4[C@@]2(CCN3CC2CC2)[C@H]1O5 [Naltrexone hydrochloride]
remaining activity at 1.25 µM ([1]; Well no.=997): 97.6%
remaining activity at 3.75 µM ([2]; Well no.=997): 100%

COc1cc(C=CC(=O)O)cc(OC)c1O (stereo in doubt) [Sinapinic acid]
remaining activity at 1.25 µM ([1]; Well no.=6150): 102%
remaining activity at 3.75 µM ([2]; Well no.=6150): 102%

O=C(O)CCCN1CCC(O[C@@H](c2ccc(Cl)cc2)c2ccccn2)CC1 [Bepotastine Besilate]
remaining activity at 1.25 µM ([1]; Well no.=5267): 91.9%
remaining activity at 3.75 µM ([2]; Well no.=5267): 91.2%

Nc1nccc(-c2c(-c3ccc(F)cc3)ncn2C2CCNCC2)n1 [SB220025]
remaining activity at 1.25 µM ([1]; Well no.=2604): 99.6%
remaining activity at 3.75 µM ([2]; Well no.=2604): 99.7%

COc1ccccc1N1CCN(CCCCNC(=O)c2ccc3ccccc3c2)CC1 [BP 897]
remaining activity at 1.25 µM ([1]; Well no.=35): 95.8%
remaining activity at 3.75 µM ([2]; Well no.=35): 93.4%

Cc1cccc(/C=C/c2ccccc2)n1 [SIB 1893]
remaining activity at 1.25 µM ([1]; Well no.=1419): 96.6%
remaining activity at 3.75 µM ([2]; Well no.=1419): 95.7%

C=CC(=O)N1CCN(C(=O)CNc2cc(I)c(Cl)cc2O)CC1 [K-Ras(G12C) inhibitor 12]
remaining activity at 1.25 µM ([1]; Well no.=7951): 99.9%
remaining activity at 3.75 µM ([2]; Well no.=7951): 90.4%

CCC(=O)C(=O)O [2-Oxobutanoic acid]
remaining activity at 1.25 µM ([1]; Well no.=6293): 106%
remaining activity at 3.75 µM ([2]; Well no.=6293): 105%

O=C1CCC(N2C(=O)c3ccccc3C2=O)C(=O)N1 (racemic)
remaining activity at 1.25 µM ([1]; Well no.=1282): 107%
remaining activity at 3.75 µM ([2]; Well no.=1282): 105%

CCCCCCCCCCC/C=C\CCCCCC(=O)O [7(Z)-Nonadecenoic acid]
remaining activity at 1.25 µM ([1]; Well no.=4364): 107%
remaining activity at 3.75 µM ([2]; Well no.=4364): 100%

CSc1ccc2c(c1)C(N1CCN(C)CC1)Cc1ccccc1S2 (stereo not drawn) [Methiothepin mesylate]
remaining activity at 1.25 µM ([1]; Well no.=801): 99.9%
remaining activity at 3.75 µM ([2]; Well no.=801): 101%

COc1ccc(C(=O)Nc2c(Cl)cncc2Cl)cc1OC1CCCC1 [3-(cyclopentyloxy)-N-(3,5-dichloro-4-pyridinyl)-4-methoxybenzamide]
remaining activity at 1.25 µM ([1]; Well no.=5876): 105%
remaining activity at 3.75 µM ([2]; Well no.=5876): 104%

O=C(O)COc1cccc(CN(Cc2ccc(-n3cccn3)cc2)S(=O)(=O)c2cccnc2)c1 [Taprenepag]
remaining activity at 1.25 µM ([1]; Well no.=6182): 96%
remaining activity at 3.75 µM ([2]; Well no.=6182): 97.6%

OC[C@H]1O[C@@H](Oc2ccc(O)cc2)[C@H](O)[C@@H](O)[C@@H]1O [Arbutin]
remaining activity at 1.25 µM ([1]; Well no.=3478): 103%
remaining activity at 3.75 µM ([2]; Well no.=3478): 101%

O=C1NCN(c2ccccc2)C12CCN(CC1COc3ccccc3O1)CC2 (stereo not drawn) [Spiroxatrine]
remaining activity at 1.25 µM ([1]; Well no.=1277): 99.7%
remaining activity at 3.75 µM ([2]; Well no.=1277): 102%

CC(N)Cc1c[nH]c2ccc(OCc3cccs3)cc12 (stereo not drawn) [BW 723C86]
remaining activity at 1.25 µM ([1]; Well no.=279): 98.7%
remaining activity at 3.75 µM ([2]; Well no.=279): 98.9%
